Usually MIC stands for the lowest concentration found to suppress growth.

We go through 13 compounds from patent publication US8841306B2, “Antimicrobials” (Panacea Biotec Ltd., priority 2008, dated 2014).

One experiment concerns E. faecalis ATCC 29212. Put plainly: In-vitro antibacterial activity, broth microdilution MIC (CLSI). The class given is cell-based. Particulars: Enterococcus faecalis, ATCC29212, 35±2° C., 16-20 h, read visually. As for the experimental part:
(§1) The in-vitro antibacterial activity of the compounds of the present invention (as described in Table 2) was determined by a broth microdilution following the guidelines prescribed by the Clinical and Laboratory Standards Institute (CLSI). This method is described in the CLSI Document M7-A7, Vol. 26, No. 2, “Methods for Dilution Antimicrobial Susceptibility Test for Bacteria that Grow Aerobically; Approved Standard-Seventh Edition”, which is incorporated herein by reference. Minimum Inhibitory Concentration (MIC) is defined as the minimum concentration of test compound which inhibits the growth of bacteria as visible or seen by the naked eye. This test can also be carried out by agar dilution method.
(§2) The compounds of the present invention were tested against a panel of standard microorganisms obtained from ATCC (American type culture collection), and a Linezolid resistant strain (LRSA) i.e. PTCC 100 (Panacea type culture collection). PTCC 100 is a repository that has been created by Panacea Biotec Ltd. at Mohali, India for storage and maintenance of clinical, bacterial and other isolates developed in-house which are used for testing the test compounds. Linezolid was used as comparator in all the tests.
(§3) In the broth microdilution method, the compound was dissolved in dimethylsulfoxide and two fold serial dilutions were carried out in 96 well microtitre plates. The inoculum was prepared by adjusting the turbidity of actively growing broth culture and added to the wells to obtain a final bacterial count of ˜2-5×10^4 CFU/well. The microtitre plates were incubated at 35±2° C. for 16-20 h and then read visually.
For orientation: Dilution methods test growth across graded concentrations, often in twofold steps.

The test system of experiment [1] is E. faecium ATCC 700221 (VRE). The experiment is described as above. The class given is cell-based. Particulars: Enterococcus faecium, 35±2° C., 16-20 h, read visually, read-out: MIC E. faecium ATTC 700221 (VRE). As for the experimental part: as §1, §2, §3
Experiment [2] has as its system S. aureus ATCC 29213 (MSSA). The experiment is described as above. In kind it is cell-based. Particulars: Staphylococcus aureus, 35±2° C., 16-20 h, read visually. Here is the method: as §1, §2, §3
Experiment [3] concerns S. aureus ATCC 33591 (MRSA). Described as above. The class given is cell-based. As to conditions: Staphylococcus aureus, 35±2° C., 16-20 h, read visually. As for the experimental part:
as §1, §2, §3

Experiment [4] concerns S. aureus PTCC 100 (LRSA). The experiment can be described thus: In-vitro antibacterial activity, broth microdilution MIC against linezolid resistant strain. The class given is cell-based. Particulars: Staphylococcus aureus. Here is the method:
as §1, §2, §3
PTCC 100 was developed by a procedure similar to the one cited in Antimicrobial Agents and Chemotherapy, 2008, 52, 1940. Female Swiss albino mice (18-22gm) bred in-house were inoculated with S. aureus ATCC 29213 strain and dosed orally with Linezolid at 5 mg/kg/p.o, next day mice were sacrificed after 20-22 h and intraperitoneal swab was taken and streaked onto Mueller Hinton Agar plates containing 4 and 8 μg/mL of Linezolid. Colonies obtained on 4 μg/mL and 8 μg/mL were selected from plates and further passaged into mice (SAM), dosed orally with Linezolid at 7.5 mg/kg/p.o. Mice were sacrificed and intraperitoneal swabs were streaked onto plates containing higher linezolid concentration i.e 16 and 32 μg/mL and the process was repeated by incrementally increasing the concentration of Linezolid upto 10 mg/kg/p.o in mice, to finally obtain S. aureus strains resistant to Linezolid at 64 μg/mL.

The test system of a further experiment is S. aureus ATCC 29213. The experiment can be described thus: In-vivo efficacy: systemic model of infection in mice. On the set-up: species or system Staphylococcus aureus. As to conditions: female Swiss albino mice, i.p. infection, oral dosing at 1 h and 5 h post infection, 50% survival at 7 days. Here is the method:
Female Swiss albino mice bred in-house were selected in weight range of 19-23 gm (n=6/group). S. aureus ATCC 29213 was grown overnight for 18-20 h, on Columbia Blood Agar (Difco; BD). Next day bacterial inoculum was prepared with optical density (O.D) corresponding to cell density of ˜2˜10^9 CFU/ml and mixed with 10% of gastric mucin (Difco; BD) in ratio of 1:1 to obtain final mucin concentration of 5% w/v. 0.5 mL of bacterial inoculum was injected intraperitoneally (i.p) into all the mice. Compounds obtained in the present invention, hereinafter referred as Test compounds were formulated in 0.25% Carboxymethylcellulose (C.M.C) and Tween 80, at different dose levels and then administered orally at 1 h and 5 h post infection. Linezolid was used as standard control. Saline was administered to the infection control group which received neither the test compound nor the standard drug. […] Numbers of survivors in each group were noted and ED50 of test compound on the basis of 50% survival was calculated through regression analysis.

[5] abbreviates: PTCC100, read-out: MIC S. aureus PTCC 100 (LRSA).

Converted amounts (≈) assume the structure as drawn. Where two headings read alike, the source gives them in different places.

Consider `COC(=O)NC[C@H]1CN(c2cc(F)c(N3CCN(C(=O)CNC(=O)c4cn5ccncc5n4)CC3)c(F)c2)C(=O)O1` [Compound 1], for which the MIC in the experiment with E. faecalis ATCC 29212 was determined as 0.5 µg/mL (≈ 0.873 µM); in experiment [1], 0.25 µg/mL (≈ 0.437 µM); in experiment [2] it was 0.5 µg/mL (≈ 0.873 µM); in experiment [3] it was 0.25 µg/mL (≈ 0.437 µM); in experiment [4] (setting [5]), 0.25 µg/mL (≈ 0.437 µM).

As for `CC(=O)NC[C@H]1CN(c2cc(F)c(N3CCN(C(=O)[C@H](CC(C)C)NC(=O)c4cn5ccncc5n4)CC3)c(F)c2)C(=O)O1` [Compound 2], the MIC in the experiment on E. faecalis ATCC 29212 was 2 µg/mL (≈ 3.26 µM); in experiment [1] it was 1 µg/mL (≈ 1.63 µM); in experiment [2] it was 2 µg/mL (≈ 3.26 µM); in experiment [3], 2 µg/mL (≈ 3.26 µM); in experiment [4] (setting [5]), 4 µg/mL (≈ 6.53 µM).

For the compound `COC(=O)NC[C@H]1CN(c2ccc(N3CCN(C(=O)CNC(=O)c4cn5ccncc5n4)CC3)c(F)c2)C(=O)O1` [Compound 3], the MIC came out at 0.5 µg/mL (≈ 0.902 µM) in the experiment with E. faecalis ATCC 29212; 0.25 µg/mL (≈ 0.451 µM) in experiment [1]; 0.5 µg/mL (≈ 0.902 µM) in experiment [2]; 0.5 µg/mL (≈ 0.902 µM) in experiment [3]; 2 µg/mL (≈ 3.61 µM) in experiment [4] (setting [5]).

As to `COC(=O)NC[C@H]1CN(c2cc(F)c(N3CCN(C(=O)[C@H](CO)NC(=O)c4cn5ccncc5n4)CC3)c(F)c2)C(=O)O1` [Compound 4], the MIC was 0.5 µg/mL (≈ 0.83 µM) in the experiment with E. faecalis ATCC 29212; 0.5 µg/mL (≈ 0.83 µM) in experiment [1]; 0.5 µg/mL (≈ 0.83 µM) in experiment [2]; 0.5 µg/mL (≈ 0.83 µM) in experiment [3]; 1 µg/mL (≈ 1.66 µM) in experiment [4] (setting [5]).

Turning to `COC(=O)NC[C@H]1CN(c2cc(F)c(N3CCN(C(=O)[C@H](C)NC(=O)c4cn5ccncc5n4)CC3)c(F)c2)C(=O)O1` [Compound 5], the minimum inhibitory concentration (MIC) against E. faecalis ATCC 29212 worked out at 0.5 µg/mL (≈ 0.852 µM); in experiment [1], 0.5 µg/mL (≈ 0.852 µM); in experiment [2], 0.5 µg/mL (≈ 0.852 µM); in experiment [3], 0.5 µg/mL (≈ 0.852 µM); in experiment [4] (setting [5]), 1 µg/mL (≈ 1.7 µM).

On to `CC(=O)NC[C@H]1CN(c2cc(F)c(N3CCN(C(=O)CNC(=O)c4cn5ccncc5n4)CC3)c(F)c2)C(=O)O1` [Compound 6], for which the MIC with E. faecalis ATCC 29212 turned out to be 0.5 µg/mL (≈ 0.898 µM); in experiment [1], 0.5 µg/mL (≈ 0.898 µM); in experiment [2], 0.5 µg/mL (≈ 0.898 µM); in experiment [3], 0.5 µg/mL (≈ 0.898 µM); in experiment [4] (setting [5]), 1 µg/mL (≈ 1.8 µM).

Take `CC(=O)NC[C@H]1CN(c2cc(F)c(N3CCN(C(=O)C4(NC(=O)c5cn6ccncc6n5)CCCC4)CC3)c(F)c2)C(=O)O1` [Compound 7]: the minimal inhibitory concentration (MIC) against E. faecalis ATCC 29212 was 8 µg/mL (≈ 13.1 µM); in experiment [1], 8 µg/mL (≈ 13.1 µM); in experiment [2], 32 µg/mL (≈ 52.4 µM); in experiment [3] it was 16 µg/mL (≈ 26.2 µM).

`COC(=O)NC[C@H]1CN(c2ccc(N3CCCN(C(=O)CNC(=O)c4cn5ccncc5n4)CC3)c(F)c2)C(=O)O1` [Compound 25]: the MIC came out at 1 µg/mL (≈ 1.76 µM) against E. faecalis ATCC 29212, 1 µg/mL (≈ 1.76 µM) in experiment [1], 2 µg/mL (≈ 3.52 µM) in experiment [2] and 2 µg/mL (≈ 3.52 µM) in experiment [3].

As for `COC(=O)NC[C@H]1CN(c2cc(F)c(N3CCN(C(=O)CNC(=O)c4ccc(Cl)nc4)CC3)c(F)c2)C(=O)O1` [Compound 130], the minimum inhibitory concentration (MIC) against E. faecalis ATCC 29212 worked out at 0.25 µg/mL (≈ 0.441 µM); in experiment [1], 0.125 µg/mL (≈ 0.22 µM); in experiment [2], 0.25 µg/mL (≈ 0.441 µM); in experiment [3], 0.25 µg/mL (≈ 0.441 µM); in experiment [4] (setting [5]) it was 8 µg/mL (≈ 14.1 µM).

Turning to `C[C@H](NC(=O)c1cn2cccnc2n1)C(=O)N1CCN(c2c(F)cc(N3C[C@H](CNC(=O)c4ccno4)OC3=O)cc2F)CC1` [Compound 190], the MIC is 0.25 µg/mL (≈ 0.401 µM) with E. faecalis ATCC 29212, 0.5 µg/mL (≈ 0.802 µM) in experiment [1], 0.25 µg/mL (≈ 0.401 µM) in experiment [2] and 0.25 µg/mL (≈ 0.401 µM) in experiment [3].

On to `COC(=O)NC[C@H]1CN(c2cc(F)c(N3CCN(C(=O)[C@H](C)NC(=O)c4ccc(F)nc4)CC3)c(F)c2)C(=O)O1` [Compound 196], for which the MIC amounted to 0.5 µg/mL (≈ 0.886 µM) against E. faecalis ATCC 29212, 0.25 µg/mL (≈ 0.443 µM) in experiment [1], 0.5 µg/mL (≈ 0.886 µM) in experiment [2] and 0.5 µg/mL (≈ 0.886 µM) in experiment [3].

Regarding `COC(=O)NC[C@H]1CN(c2cc(F)c(N3CCN(C(=O)[C@H](C)NC(=O)c4cccnc4F)CC3)c(F)c2)C(=O)O1` [Compound 197], the MIC against E. faecalis ATCC 29212 came out at 0.5 µg/mL (≈ 0.886 µM); in experiment [1], 0.25 µg/mL (≈ 0.443 µM); in experiment [2], 1 µg/mL (≈ 1.77 µM); in experiment [3], 0.5 µg/mL (≈ 0.886 µM).

Consider `CC(=O)NC[C@H]1CN(c2ccc(N3CCOCC3)c(F)c2)C(=O)O1` [Linezolid, reference compound], for which the MIC in the experiment with E. faecalis ATCC 29212 worked out at 2 µg/mL (≈ 5.93 µM); in experiment [1] it was 2 µg/mL (≈ 5.93 µM); in experiment [2], 2 µg/mL (≈ 5.93 µM); in experiment [3], 1 µg/mL (≈ 2.96 µM); in experiment [4] (setting [5]), 32 µg/mL (≈ 94.9 µM); in experiment [4] (PTCC100, read-out: MIC of isolated colonies (PTCC 100)), 64 µg/mL. Moreover, in the experiment with S. aureus ATCC 29213, the “ED50 values S. aureus ATCC 29213” value is on record as 6.0 mg/kg/p.o.
